US12545653B2, “Compound as PPAR agonist and application thereof” (USA Elixiria Biotech Inc., priority 2019, dated 2026)
Where “and” joins values, the source holds several entries; their conditions need not be identical. Equal values may be shown once.

Assays:
[1] = Blood-brain barrier permeability: brain concentration after a single injection; type: in vivo, rat; details: male, rat, in vivo, ip, 10 mg/kg
Experimental: The blood-brain barrier permeability of carbonyl-containing cyclic compounds is determined in in vivo studies. Healthy male rats used in the study were divided into compound group and control group. […] The brains were dissected, heated immediately at boiling water for 2 min, homogenized with methanol, and centrifuged. The upper layer was collected and dried under vacuum to remove solvents, and then resuspended in methanol. The above samples are filtered through a 0.45 micron nylon membrane, and then 20 microL of sample were load into a high-performance liquid chromatographic (HPLC) system (Model LC-16P, Shimadzu, Japan) to perform quantitative analysis.

LN-229 cells = assay: Brain cancer model, LN-229 cells injected into the striatum, tumor volume; type: in vivo, mouse; details: mice with LN-229 cells in striatum, 5 mg/kg body weight/day
Experimental: The treatment lasted for a total of 30 days. The compounds was dissolved in DMSO and mixed into food pellets. The animals were given ad libitum access to the pellets. […] The difference is significant with P<0.05.

[2] = test system: rat model of hyperglycemia-induced nephropathy; assay: Hyperglycemia-induced nephropathy model (streptozotocin); type: in vivo; details: streptozotocin rats, 5 mg/kg body weight/day in food, 90 days
Experimental: The method was as follows:
Wild type Sprague-Dawley rats were used. The compounds was dissolved in DMSO and mixed into food pellets. The animals were given ad libitum access to the pellets. […] In addition, 3 days before compound treatment, the animal of group 2 to 4 were given a single intraperitoneal injection of streptozotocin, and 3 days later, blood glucose levels were measured from tail veins using a glucose meter. Animals with blood glucose levels above 500˜650 milligrams per deciliter were considered as hyperglycemia and were used for further study. No any side effect, or significant body weight changes, or significant dietary changes were found during the administration. After 90 days after initiation of treatment, blood pressure values were measured with the tail cuff system. The day before the kidneys were harvested, animals were placed in metabolic cages for 24 h for urine collection, and albumin to creatinine ratio (ACR) was measured. Animals were then fasted for 12 hours and sacrificed under anesthesia with a 10% chloral hydrate solution (0.3 g/kg). Serum samples were isolated and biochemical parameters were analyzed with by enzyme colorimetry in an automatic analyzer (Roche) to determine the FBG (fasting blood glucose) level (unit millimole/L). In addition, fasting insulin (FINS) levels, where the units are milliIU/L, were determined by enzyme-linked immunosorbent assay (ELISA) method with anti-rat insulin antibodies, and TNF-α was detected by rat tumor necrosis factor-α (TNF-α) ELISA kit (BD). […] The difference is significant with P<0.05.

[3] = test system: dIoN-CCI rat model of trigeminal neuropathic pain; details: in vivo
From the text: A common rat model of trigeminal neuralgia is a chronic compression injury model (CCI) caused by ligation of the infraorbital nerve (IoN). In the present study, an improved rat model of trigeminal neuropathic pain was used, in which CCI is induced by ligation of distal segment of IoN (dIoN). Wild type male Sprague-Dawley rats with body weight 250 to 260 grams underwent dIoN-CCI surgery experiments. The mechanical threshold of pain in rats without surgery experiments will exceed 6 grams. If the dIoN-CCI surgery is successful, it will reduce the pain threshold to less than 2 grams.
The mice were divided into the following 11 groups with 4 to 5 mice in each group. The formulation used for transdermal treatment is cream. […] The compound administration of each group starts on the third day after successful dIoN-CCI surgery. […] The method for detecting rat facial hypersensitivity is performed using Von Frey filaments. An analysis of variance (ANOVA) and Dunnett post hoc comparison test are used to compare the significance of the differences between different groups of data. The difference is significant with P<0.05.

## CCc1ccc(CC/C=C/c2ccc3c(c2)C(=O)CC3)cc1 [ELB00824, (E)-6-(4-(4-ethylphenyl)but-1-en-1-yl)-2,3-dihydro-1H-inden-1-one]
[1]
  Cmax: 16.4 µM and 4830 ng/mL
[1]; AUC0-6 h
  AUC(0-t): 18700 ng·h/mL
[1]; AUC0-24 h
  AUC(0-t): 31500 ng·h/mL
LN-229 cells
  tumor volume at 30 days compared with disease control group: significant tumor volume reduction
[2]
  blood TNF-α level compared with disease control group: significant TNF-α level reduction
  insulin resistance index ISI=ln (FBG*FINS) compared with disease control group: significant ISI increase
  urine albumin to creatinine ratio (ACR) compared with disease control group: significant ACR reduction
[3]
  side effect at the time of administration: no side effect
